Patent US9062048B2, “Cyclohexyl-azetidinyl antagonists of CCR2” (Janssen Pharmaceutica NV, priority 2010, dated 2015)

Molecular target: CCR2 (Homo sapiens (Human), UniProt P41597)
Test: MCP-1 Receptor Binding Assay in THP-1 Cells;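 also: THP-1 is a human monocytic cell line, and nonspecific binding was defined with 1 µM unlabeled MCP-1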
Conditions: 0.5 nM 125I labeled MCP-1, 2 hours at 30° C., read-out: Inhibition of MCP-1 Binding IC50 MCP1B

CCR2, sequence (P41597 whole entry): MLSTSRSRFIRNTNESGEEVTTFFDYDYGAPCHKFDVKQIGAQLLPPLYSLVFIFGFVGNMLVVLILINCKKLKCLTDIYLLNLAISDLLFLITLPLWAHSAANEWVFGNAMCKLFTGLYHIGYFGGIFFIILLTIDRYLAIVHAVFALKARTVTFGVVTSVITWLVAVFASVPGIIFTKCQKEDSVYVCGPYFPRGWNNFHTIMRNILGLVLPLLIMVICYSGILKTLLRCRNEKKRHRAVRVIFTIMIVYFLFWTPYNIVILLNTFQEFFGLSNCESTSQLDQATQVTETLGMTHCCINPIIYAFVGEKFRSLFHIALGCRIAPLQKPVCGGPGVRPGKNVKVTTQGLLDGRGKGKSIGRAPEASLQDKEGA

Row | IC50 [nM] | SMILES
1 | 430 | CC(C)[C@@H](O)[C@H]1CC[C@H](N2CC(NC(=O)CNc3nccc4ncc(C(F)(F)F)cc34)C2)CC1 [Example 156, N-(1-((1R,4r)-4-((R)-1-hydroxy-2-methylpropyl)cyclohexyl)azetidin-3-yl)-2-((3-(trifluoromethyl)-1,6-naphthyridin-5-yl)amino)acetamide]
2 | 530 | CC(C)C(O)[C@H]1CC[C@@H](N2CC(NC(=O)CNc3cnnc4ccc(C(F)(F)F)cc34)C2)CC1 (stereo partly drawn) [Example 157, N-(1-((1R,4s)-4-((S)-1-hydroxy-2-methylpropyl)cyclohexyl)azetidin-3-yl)-2-((6-(trifluoromethyl)cinnolin-4-yl)amino)acetamide]
3 | 1220 | O=C(CNc1ncnc2ccc(C(F)(F)F)cc12)N[C@H]1C[C@H](N2CCC(O)(c3cncs3)CC2)C1 [Example 162, N-((1r,3R)-3-(4-hydroxy-4-(thiazol-5-yl)piperidin-1-yl)cyclobutyl)-2-((6-(trifluoromethyl)quinazolin-4-yl)amino)acetamide]
4 | 2600 | N#Cc1cc(NCC(=O)N[C@H]2C[C@@H](N3CCC(O)(c4cncs4)CC3)C2)c2cc(C(F)(F)F)ccc2n1 [Example 163, 2-((2-cyano-6-(trifluoromethyl)quinolin-4-yl)amino)-N-((1s,3s)-3-(4-hydroxy-4-(thiazol-5-yl)piperidin-1-yl)cyclobutyl)acetamide]
5 | > 25000 | N#Cc1cc(NCC(=O)N[C@H]2C[C@H](N3CCC(O)(c4cncs4)CC3)C2)c2cc(C(F)(F)F)ccc2n1 [Example 164, 2-((2-cyano-6-(trifluoromethyl)quinolin-4-yl)amino)-N-((1r,3r)-3-(4-hydroxy-4-(thiazol-5-yl)piperidin-1-yl)cyclobutyl)acetamide]
6 | 44 | CC[C@@H](O)C1CCC(N2CC(NC(=O)CNc3nccc4ccc(C(F)(F)F)cc34)C2)CC1 (stereo partly drawn) [Example 167, N-(1-((1R,4s)-4-(1-hydroxypropyl)cyclohexyl)azetidin-3-yl)-2-((7-(trifluoromethyl)isoquinolin-1-yl)amino)acetamide]
7 | > 25000 | CC[C@H](O)C1CCC(N2CC(NC(=O)CNc3nccc4ccc(C(F)(F)F)cc34)C2)CC1 (stereo partly shown) [Example 168]
8 | 35 | CC(C)C(O)[C@H]1CC[C@@H](N2CC(NC(=O)CNc3nccc4ccc(C(F)(F)F)cc34)C2)CC1 (stereo partly shown) [Example 169]
9 | 72 | CCC(O)[C@H]1CC[C@@H](N2CC(NC(=O)CNc3nccc4ccc(C(F)(F)C(F)(F)F)cc34)C2)CC1 (stereo partly drawn) [Example 170, N-(1-((1R,4s)-4-(1-hydroxypropyl)cyclohexyl)azetidin-3-yl)-2-((7-(perfluoroethyl)isoquinolin-1-yl)amino)acetamide]

Row | SMILES | IC50 [nM]
10 | O=C(CNc1ncnc2ccc(C(F)(F)F)cc12)N[C@H]1C[C@@H](N2CCC(O)(c3cncs3)CC2)C1 [Example 161, N-((1s,3s)-3-(4-hydroxy-4-(thiazol-5-yl)piperidin-1-yl)cyclobutyl)-2-((6-(trifluoromethyl)quinazolin-4-yl)amino)acetamide] | > 25000
